Source: US20040197338A1, “Respiratory syncytial virus” (priority 2001, published 2004)

Experiment: Peptide solubility
Assay type: physicochemical
Details: for solubility on resuspension: resuspended at 1 mg/ml, other peptides in water

SMILES | solubility in water / PBS | solubility on resuspension
CC[C@H](C)[C@H](NC(=O)[C@H](CC(C)C)NC(=O)CNC(=O)[C@@H](NC(=O)[C@H](Cc1ccccc1)NC(=O)[C@H](CCCCN)NC(=O)[C@H](Cc1c[nH]cn1)NC(=O)[C@H](CC(N)=O)NC(=O)[C@H](C)NC(=O)[C@H](CC(=O)O)NC(=O)[C@H](CCC(=O)O)NC(=O)[C@@H](NC(=O)[C@@H](NC(=O)[C@H](CC(C)C)NC(=O)[C@H](CC(C)C)NC(=O)[C@H](CCSC)NC(=O)CNC(=O)[C@H](CS)NC(=O)[C@H](CC(C)C)NC(=O)[C@@H](N)CCCCN)[C@@H](C)CC)[C@@H](C)O)[C@@H](C)O)C(=O)O [peptide N4] | soluble in PBS | 
CC[C@H](C)[C@H](NC(=O)[C@H](CCC(N)=O)NC(=O)[C@@H](NC(=O)[C@H](CCC(=O)O)NC(=O)[C@@H](NC(=O)[C@@H](NC(=O)[C@H](CC(C)C)NC(=O)[C@H](CO)NC(=O)[C@H](C)NC(=O)[C@H](CC(C)C)NC(=O)[C@@H](NC(=O)[C@H](CC(C)C)NC(=O)[C@@H](NC(=O)[C@H](CCC(=O)O)NC(=O)[C@H](Cc1ccccc1)NC(=O)[C@H](CCCCN)NC(=O)[C@H](CCSC)NC(=O)[C@H](CCC(=O)O)NC(=O)[C@H](CCCCN)NC(=O)CN)C(C)C)[C@@H](C)O)[C@@H](C)O)[C@@H](C)O)[C@@H](C)CC)C(=O)O [N8] | solubility problems in water | required 10% (v/v) acetic acid for solubility
CC[C@H](C)[C@H](NC(=O)CN)C(=O)N[C@@H](Cc1ccccc1)C(=O)N[C@@H](C)C(=O)NCC(=O)N[C@@H](CC(C)C)C(=O)N[C@@H](Cc1ccccc1)C(=O)N[C@@H](CCSC)C(=O)N[C@@H](CC(N)=O)C(=O)N[C@@H](C)C(=O)N[C@@H](Cc1ccc(O)cc1)C(=O)NCC(=O)N[C@@H](C)C(=O)NCC(=O)N[C@@H](CCC(N)=O)C(=O)N[C@H](C(=O)N[C@@H](CCSC)C(=O)N[C@@H](CC(C)C)C(=O)N[C@@H](CCCNC(=N)N)C(=O)N[C@@H](Cc1c[nH]c2ccccc12)C(=O)O)C(C)C [N17] | solubility problems in water | required 10% (v/v) acetic acid for solubility
